# Laboratory results as given in patent US11247970B2, “Selective inhibition of gluconeogenic activity” (Dana-Farber Cancer Institute, Inc., priority 2017, dated 2022).
# Columns and labels:
# Type in all cases: in vivo
# [1] = tested on: Lep^ob/ob mice; assay: Blood glucose in Lep ob/ob mice with hepatic PGC-1α knockdown; conditions: shPGC-1α adenovirus
# Protocol: Virus was introduced to mice through the tail vein injection. Virus was thawed before injection and the desired amount of virus was diluted with saline to a final volume of 100 μL per mouse. Each mouse was injected with 6*10^7 pfu/g. SR-18292 treatment started on day 5 post infection.
# In addition, liver toxicity, as measured by serum levels of alanine transaminase (ALT), aspartate aminotransferase (AST), lactate dehydrogenase (LDH) and bilirubin, was not observed in mice treated with SR-18292 (Table 6). […] To assess the contribution of PGC-1α in mediating the in vivo effects of SR-18292, hepatic PGC-1α in Lep^ob/ob mice was depleted using shRNA and observed a significant reduction in basal blood glucose concentrations compared to control. […] To fully assess the effects of SR-18292 on whole body glucose homeostasis and insulin resistance, a glucose tolerance test (GTT) and insulin tolerance test (ITT) were performed following the same protocol used to determine fasting blood glucose. […] As expected, insulin levels after GTT were lower in the treated group (FIG. 51). […] To test if SR-18292 chronic treatment will cause similar anti-diabetic effects, mice were treated for a period of 14 days.
# [2] = tested on: HFD fed mice; assay: Fasting blood glucose in HFD fed mice; conditions: 45 mg/kg I.P., 3 days and again day 4
# Protocol: All mice were purchased from Jackson laboratories and housed under a 12 h light/12 h dark cycle at 22° C. Before handling, mice were allowed to acclimate for at least 1 week in our animal facility. For in vivo studies with DIO mice, males 6-8 weeks old were fed HFD for the indicated time. […] Metformin was re-suspended in the same solution at a 20 mg/ml concentration. […] Metformin was administered via oral gavage. […] Glycemia was measured by tail bleed using a glucometer (OneTouch). For all experiments, age- and body weight-matched animals were used.
# Therefore, blood glucose was measured in the fasted state during which the liver plays a major role maintaining glycemia. […] A high fat diet (HFD) fed mice, a dietary model of obesity and T2D, were used.
# [3] = tested on: HFD fed mice; assay: Pyruvate tolerance test (PTT); conditions: HFD 17 weeks
# Protocol: All mice were purchased from Jackson laboratories and housed under a 12 h light/12 h dark cycle at 22° C. Before handling, mice were allowed to acclimate for at least 1 week in our animal facility. For in vivo studies with DIO mice, males 6-8 weeks old were fed HFD for the indicated time. For drug administration, SR-18292 was re-suspended in a 10% DMSO/10% Tween80/80% PBS solution at a final concentration of 6-12 mg/ml. Metformin was re-suspended in the same solution at a 20 mg/ml concentration. SR-18292 was injected via I.P. for 3 days between 4-5 pm and food was removed on day 3 at 5 pm. […] Metformin was administered via oral gavage. […] Insulin tolerance test was performed following the same dosing protocol, but mice were fasted for 4 hours after the forth injection before performing the test. Insulin was injected via I.P. (0.5 U/Kg) and blood glucose was measured every 20 minutes. Glycemia was measured by tail bleed using a glucometer (OneTouch). For all experiments, age- and body weight-matched animals were used. For protein, RNA extracts and biochemistry studies, livers were removed following each experiment and snap frozen in liquid nitrogen. For information on number of animals in each experiment please refer to FIGS. 4, 5 and S5 legends. All studies were performed according to protocols approved by Beth Israel Deaconess Medical Center's Animal Care and Use Committee.
# [4] = tested on: Pck1 gene expression in liver; assay: qPCR of gluconeogenic genes in liver of treated mice; conditions: livers from fasted treated mice
# Protocol: All mice were purchased from Jackson laboratories and housed under a 12 h light/12 h dark cycle at 22° C. Before handling, mice were allowed to acclimate for at least 1 week in our animal facility. For in vivo studies with DIO mice, males 6-8 weeks old were fed HFD for the indicated time. For drug administration, SR-18292 was re-suspended in a 10% DMSO/10% Tween80/80% PBS solution at a final concentration of 6-12 mg/ml. Metformin was re-suspended in the same solution at a 20 mg/ml concentration. SR-18292 was injected via I.P. for 3 days between 4-5 pm and food was removed on day 3 at 5 pm. […] Metformin was administered via oral gavage. […] Insulin tolerance test was performed following the same dosing protocol, but mice were fasted for 4 hours after the forth injection before performing the test. Insulin was injected via I.P. (0.5 U/Kg) and blood glucose was measured every 20 minutes. Glycemia was measured by tail bleed using a glucometer (OneTouch). […] Total RNA was extracted from cells or pulverized liver using TRIzol reagent (Ambion, Life Technologies), followed by cDNA preparation from 2 μg of total RNA with a High-Capacity cDNA Reverse Transcription Kit (Applied Biosystems). cDNA products were quantified by real-time PCR using Power SYBR Green PCR Master Mix (Applied Biosystems) on a CFX384 Real-Time PCR System (Bio-Rad). […]
# [5] = tested on: ob/ob mice; assay: Fasting glycemia and liver lipid in leptin deficient ob/ob mice; conditions: diabetic leptin deficient ob/ob mice
compound,measurement,setting,value
"Cc1ccc(CN(CC(O)COc2cccc3[nH]ccc23)C(C)(C)C)cc1 (stereo not shown) [SR-18292, 1-((1H-indol-4-yl)oxy)-3-(tert-butyl(4-methylbenzyl)amino)propan-2-ol]",SR-18292-mediated reduction in blood glucose with reduced hepatic PGC-1α,[1],blunted SR-18292-mediated reductions in blood glucose concentrations
same,fasting blood glucose vs vehicle,[2],significantly lower
same,defects in glucose production relative to metformin,[3],comparable to that mediated by metformin treatment
same,glucose levels after pyruvate injection,[3],significantly reduced
same,gluconeogenic gene expression (Pck1) in liver,[4],inhibited
same,fasting glycemia,[5],improved fasting glycemia
same,lipid accumulation in liver,[5],without altering lipid accumulation in liver
